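Test compounds were applied to cells in 96-well plates for 48 hours at 5 doses. Abbreviation: GI50, concentration required for 50% inhibition of growth.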 Calls of active or inactive are those of the source. Rule as the data show it: active = GI50 up to about 1.1 µM and inactive = higher.
Legend:
Test in all cases: DTP human tumour cell line panel, 48 h
A549 = system: A549
ACHN = system: ACHN
CAKI-1 = system: CAKI-1
EKVX = system: EKVX
HCC 2998 = system: HCC 2998
HCT-116 = system: HCT-116
HCT-15 = system: HCT-15
HL-60 = system: HL-60
HOP-62 = system: HOP-62
HT-29 = system: HT-29
MOLT-4 = system: MOLT-4
NCI-H460 = system: NCI-H460
RPMI-8226 = system: RPMI-8226
SF-539 = system: SF-539
SK-MEL-28 = system: SK-MEL-28
SN12C = system: SN12C
UACC-257 = system: UACC-257
MCF7 = system: MCF7
PC-3 = system: PC-3

Structure (SMILES) | GI50 (A549) | GI50 (ACHN) | GI50 (CAKI-1) | GI50 (EKVX) | GI50 (HCC 2998) | GI50 (HCT-116) | GI50 (HCT-15) [µM] | GI50 (HL-60) | GI50 (HOP-62) | GI50 (HT-29) | GI50 (MOLT-4) | GI50 (NCI-H460) | GI50 (RPMI-8226) | GI50 (SF-539) | GI50 (SK-MEL-28) | GI50 (SN12C) | GI50 (UACC-257) | GI50 (MCF7) | GI50 (PC-3)
COc1cc(C=C2C(=O)NC(=O)NC2=O)cc(OC)c1OC | > 100 µM (inactive) | > 100 µM (inactive) | > 100 µM (inactive) | > 100 µM (inactive) | > 100 µM (inactive) | > 100 µM (inactive) | > 100 | > 100 µM (inactive) | > 100 µM (inactive) | > 100 µM (inactive) | > 100 µM (inactive) | > 100 µM (inactive) | > 100 µM (inactive) | > 100 µM (inactive) | > 100 µM (inactive) | > 100 µM (inactive) | > 100 µM (inactive) | – | –
COc1ccc(-c2csc(Cc3nc4c(Br)cc(Br)cc4c(=O)n3-c3ccc(OC)cc3)n2)cc1 | 63.2 µM (inactive) | 43.7 µM (inactive) | 94.4 µM (inactive) | > 100 µM (inactive) | > 100 µM (inactive) | 30.4 µM (inactive) | 24 | – | > 100 µM (inactive) | 48.9 µM (inactive) | 25.5 µM (inactive) | 54 µM (inactive) | – | – | 24.3 µM (inactive) | – | > 100 µM (inactive) | 63.1 µM (inactive) | 28.9 µM (inactive)
O=C(Cn1c2c(c3ccccc31)CCCC2)N1CCOCC1 | > 100 µM (inactive) | > 100 µM (inactive) | > 100 µM (inactive) | > 100 µM (inactive) | > 100 µM (inactive) | > 100 µM (inactive) | > 100 | > 100 µM (inactive) | > 100 µM (inactive) | > 100 µM (inactive) | > 100 µM (inactive) | > 100 µM (inactive) | > 100 µM (inactive) | > 100 µM (inactive) | – | > 100 µM (inactive) | > 100 µM (inactive) | > 100 µM (inactive) | > 100 µM (inactive)
CN(C)CCCN1CCc2c([nH]c3ccccc23)C1c1cccnc1 (stereo unspecified) | > 100 µM (inactive) | > 100 µM (inactive) | > 100 µM (inactive) | > 100 µM (inactive) | > 100 µM (inactive) | > 100 µM (inactive) | > 100 | > 100 µM (inactive) | > 100 µM (inactive) | > 100 µM (inactive) | > 100 µM (inactive) | > 100 µM (inactive) | > 100 µM (inactive) | > 100 µM (inactive) | 80 µM (inactive) | > 100 µM (inactive) | > 100 µM (inactive) | – | –
NC(=S)N1N=C2c3ccccc3CC[C@@H]2[C@@H]1c1ccccc1 | 8.59 µM (inactive) | 7.94 µM (inactive) | 5.01 µM (inactive) | 16.3 µM (inactive) | 6.78 µM (inactive) | 5.48 µM (inactive) | 3.33 | 2.86 µM (inactive) | 5.43 µM (inactive) | 3.15 µM (inactive) | 4.05 µM (inactive) | 5.42 µM (inactive) | 5.61 µM (inactive) | 4.88 µM (inactive) | 9.84 µM (inactive) | 5.05 µM (inactive) | 9.29 µM (inactive) | – | –
O=C(OCC1CC(C2(O)CCCCC2)C(=O)O1)c1ccccc1 (stereo unspecified) | > 100 µM (inactive) | > 100 µM (inactive) | > 100 µM (inactive) | > 100 µM (inactive) | > 100 µM (inactive) | > 100 µM (inactive) | > 100 | – | > 100 µM (inactive) | > 100 µM (inactive) | > 100 µM (inactive) | 71.8 µM (inactive) | > 100 µM (inactive) | > 100 µM (inactive) | > 100 µM (inactive) | > 100 µM (inactive) | > 100 µM (inactive) | > 100 µM (inactive) | > 100 µM (inactive)
Cc1cc2ccccc2oc(=O)/c1=N\Nc1ccccc1 | 74.3 µM (inactive) | 22.6 µM (inactive) | 37.4 µM (inactive) | 37.2 µM (inactive) | > 100 µM (inactive) | 41.9 µM (inactive) | > 100 | > 100 µM (inactive) | 19.3 µM (inactive) | 64.6 µM (inactive) | > 100 µM (inactive) | 70 µM (inactive) | > 100 µM (inactive) | 37.8 µM (inactive) | > 100 µM (inactive) | 65.3 µM (inactive) | > 100 µM (inactive) | 83.2 µM (inactive) | 62.7 µM (inactive)
COC(=O)/C=C/c1c(CC=C(C)C)ncn1C | 70.3 µM (inactive) | > 76.7 µM (inactive) | > 68.1 µM (inactive) | > 57.1 µM (inactive) | 54.6 µM (inactive) | 24.3 µM (inactive) | 7.85 | 4.21 µM (inactive) | 42 µM (inactive) | 14.4 µM (inactive) | 5.31 µM (inactive) | 40.2 µM (inactive) | 20.6 µM (inactive) | 17.8 µM (inactive) | > 49.5 µM (inactive) | 88.5 µM (inactive) | 61.7 µM (inactive) | – | –
COC(=O)c1nc(NC#N)nc(O)c1C | > 89.5 µM (inactive) | > 73.6 µM (inactive) | > 77.3 µM (inactive) | > 100 µM (inactive) | > 100 µM (inactive) | > 61.1 µM (inactive) | > 87.3 | > 100 µM (inactive) | > 100 µM (inactive) | > 100 µM (inactive) | > 100 µM (inactive) | > 100 µM (inactive) | 98.9 µM (inactive) | > 55.8 µM (inactive) | > 100 µM (inactive) | > 100 µM (inactive) | > 100 µM (inactive) | – | –
C=C(CN(C)C)C(=O)c1ccccc1Cl | > 100 µM (inactive) | 17.6 µM (inactive) | 17.1 µM (inactive) | > 52.1 µM (inactive) | 26.5 µM (inactive) | 18.4 µM (inactive) | 17.3 | 5.5 µM (inactive) | > 100 µM (inactive) | 19.1 µM (inactive) | 6.68 µM (inactive) | 52.8 µM (inactive) | 17.7 µM (inactive) | 24.4 µM (inactive) | 7.59 µM (inactive) | 20.9 µM (inactive) | 18.8 µM (inactive) | – | –
O=C(Nc1ccccc1-c1nn(C(=S)Nc2ccccc2)c(=S)n(C(=S)Nc2ccccc2)c1=O)C(F)(F)F | 24.4 µM (inactive) | 24.4 µM (inactive) | 31.4 µM (inactive) | 27.6 µM (inactive) | 25.3 µM (inactive) | 16.6 µM (inactive) | 20.1 | 20.9 µM (inactive) | 29.3 µM (inactive) | 27.7 µM (inactive) | 7.85 µM (inactive) | 21.3 µM (inactive) | 11.1 µM (inactive) | 36.1 µM (inactive) | 27.6 µM (inactive) | 26.4 µM (inactive) | 14.2 µM (inactive) | – | –
O=c1[nH]c(=O)n(C2OC(CO)C(O)C2O)cc1OCC(F)(F)F (stereo unspecified) | > 100 µM (inactive) | > 100 µM (inactive) | > 100 µM (inactive) | > 100 µM (inactive) | > 100 µM (inactive) | > 100 µM (inactive) | > 100 | > 100 µM (inactive) | > 100 µM (inactive) | > 100 µM (inactive) | > 100 µM (inactive) | > 100 µM (inactive) | > 100 µM (inactive) | > 100 µM (inactive) | > 100 µM (inactive) | > 100 µM (inactive) | > 100 µM (inactive) | – | –

— ChEMBL document CHEMBL1201862, “PubChem BioAssay data set” (2004)
